The assay deals with T1, MAGL protein (Homo sapiens, UniProt Q99685).
T1 sequence (Q99685 1-303): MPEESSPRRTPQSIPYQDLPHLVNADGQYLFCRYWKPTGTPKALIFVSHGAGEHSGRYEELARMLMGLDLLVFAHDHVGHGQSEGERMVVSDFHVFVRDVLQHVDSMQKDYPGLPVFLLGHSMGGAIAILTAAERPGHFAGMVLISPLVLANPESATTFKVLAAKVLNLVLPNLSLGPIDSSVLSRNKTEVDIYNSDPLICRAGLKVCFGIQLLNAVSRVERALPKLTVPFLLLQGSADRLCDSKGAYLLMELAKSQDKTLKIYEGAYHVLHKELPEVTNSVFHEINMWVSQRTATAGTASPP
Put plainly: 2-AG assay: MAGL inhibitory activity by hydrolysis of 2-arachidonoylglycerol to arachidonic acid, followed by mass spectrometry. The note with it: 8 μM 2-arachidonoylglycerol, 15 min preincubation, 30 min reaction at RT, RapidFire MS readout. The assay is classed as biochemical. The gist of the method: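 Activity was measured by RapidFire SPE–triple-quad MS as the ratio of arachidonic acid to d8-arachidonic acid after 2-AG hydrolysis (8 μM substrate, 30 min, RT, acetonitrile quench). Compounds, tested from 12.5 μM down to […], were first preincubated 15 min with MAGL in TRIS/EDTA/Tween-20 buffer containing 2.5% DMSO.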

The IC50 is the concentration at which inhibition is half-maximal. A low value points to greater potency in that assay. On to `O=C(N1CC2(CC(Cc3ccc(S(=O)(=O)C(F)(F)F)cc3)C2)C1)N1CC2(CC(c3nc(C4COC4)n[nH]3)C2)C1` [compound 755], for which the IC50 worked out at 0.61 nM. The same measure for `O=C(N1CC2(CCC(Cc3ccc(Cl)cn3)CC2)C1)N1CC2(CC(c3nc(C4CC(F)(F)C4)n[nH]3)C2)C1` [compound 756]: 98.5 nM; for `O=C(N1CC2(CC(Cn3cc(OC(F)(F)F)ccc3=O)C2)C1)N1CC2(CC(c3nc(C4CC4)n[nH]3)C2)C1` [compound 757]: 3.77 nM. With `O=C(N1CC2(CC(c3nc(C4CC(F)(F)C4)n[nH]3)C2)C1)N1CC2(CN(Cc3cc(C(F)(F)F)no3)C2)C1` [compound 758] the figure was 145 nM; with `N#Cc1cc(CC2CC3(C2)CN(C(=O)N2CC4(CC(c5nc(C6COC6)n[nH]5)C4)C2)C3)cc(C(F)(F)F)c1` [compound 759], 11 nM; with `O=C(N1CC(C23CC(c4cncc(F)c4)(C2)C3)C1)N1CC2(CC(c3nc(C4CC4)n[nH]3)C2)C1` [compound 760], 6.09 nM. With `O=C(N1CC2(CC(Cc3cnc(C(F)(F)F)cn3)C2)C1)N1CC2(CC(c3nc(C4COC4)n[nH]3)C2)C1` [compound 761] the figure was 147 nM; with `CCc1nsc(CN2CC3(C2)CN(C(=O)N2CC4(CC(c5nc(C6CC6)n[nH]5)C4)C2)C3)n1` [compound 762], 35.7 nM. Take `O=C(N1CC2(CC(c3nc(C4CC4)n[nH]3)C2)C1)N1CC2(CN(Cc3coc(C(F)(F)F)n3)C2)C1` [compound 763]: the 50% inhibitory concentration (IC50) was 27.1 nM. The same measure for `O=C(N1CC2(CC(Cc3cnn(CC(F)(F)F)c3)C2)C1)N1CC2(CC(c3nc(C4CC4)n[nH]3)C2)C1` [compound 764]: 1.08 nM; for `O=C(N1CC2(CC(Cc3cnn(CC(F)(F)F)c3)C2)C1)N1CC2(CC(c3nc(C4(O)CC4)n[nH]3)C2)C1` [compound 765]: 4.49 nM; for `O=C(N1CC2(CC(Cn3ccc(C(F)(F)F)cc3=O)C2)C1)N1CC2(CC(c3nc(C4CC4)n[nH]3)C2)C1` [compound 766]: 2.83 nM. The same measure for `CCNC(=O)c1cc(Cl)ccc1C12CC(C3CN(C(=O)N4CC5(CC(c6nnc(C7CC7)[nH]6)C5)C4)C3)(C1)C2` [compound 767]: 4.07 nM; for `O=C(N1CC2(CC(Cc3ccc(C(F)(F)F)cc3F)C2)C1)N1CC2(CC(c3nc(C4COC4)n[nH]3)C2)C1` [compound 768]: 0.08 nM; for `O=C(N1CC2(CC(Cc3ccc(OC(F)(F)F)nc3)C2)C1)N1CC2(CC(c3nc(C4COC4)n[nH]3)C2)C1` [compound 769]: 11.8 nM. The same measure for `Cn1cc(CC2CC3(C2)CN(C(=O)N2CC4(CC(c5nc(C6CC6)n[nH]5)C4)C2)C3)c(C(F)(F)F)n1` [compound 770]: 0.23 nM; for `N#Cc1ccc(CC2CC3(C2)CN(C(=O)N2CC4(CC(c5nc(C6COC6)n[nH]5)C4)C2)C3)cc1C(F)(F)F` [compound 771]: 7.02 nM. In turn, `N#Cc1ccc(CC2CC3(C2)CN(C(=O)N2CC4(CC(c5nc(C6CC6)n[nH]5)C4)C2)C3)c(F)c1` [compound 772] had a concentration for half-maximal inhibition (IC50) of 0.05 nM. Turning to `O=C(N1CC(C23CC(c4ccc(F)cc4)(C2)C3)C1)N1CC2(CC(c3nc(C4CC4)n[nH]3)C2)C1` [compound 773], the half-inhibitory concentration (IC50) is 1.31 nM. With `Cn1ncc(CC2CC3(C2)CN(C(=O)N2CC4(CC(c5nc(C6COC6)n[nH]5)C4)C2)C3)c1C(F)(F)F` [compound 774] the figure was 7.94 nM; with `Cn1nc(C(F)(F)F)cc1CC1CC2(C1)CN(C(=O)N1CC3(CC(c4nc(C5(O)CC5)n[nH]4)C3)C1)C2` [compound 775], 2.01 nM; with `CS(=O)(=O)C1(c2ccc(C3CN(C(=O)N4CC5(CC(c6nc(C7CC7)n[nH]6)C5)C4)C3)cc2)CC1` [compound 776], 5.9 nM. With `Cn1ncc(C(F)(F)F)c1CC1CC2(C1)CN(C(=O)N1CC3(CC(c4nc(C5(O)CC5)n[nH]4)C3)C1)C2` [compound 777] the figure was 1.27 nM; with `N#Cc1cc(CC2CC3(C2)CN(C(=O)N2CC4(CC(c5nnc(C6CC6)[nH]5)C4)C2)C3)cc(C(F)(F)F)n1` [compound 778], 0.99 nM; with `O=C(N1CC2(CCC(Cc3nnc(C(F)(F)F)o3)CC2)C1)N1CC2(CC(c3nc(C4CC4)n[nH]3)C2)C1` [compound 779], 8.36 nM. With `O=C(N1CC2(CC(c3nc(C4CC4)n[nH]3)C2)C1)N1CC2(CN(Cc3nc(C(F)(F)F)cs3)C2)C1` [compound 780] the figure was 3.37 nM; with `N=S(=O)(c1ccc(CC2CC3(C2)CN(C(=O)N2CC4(CC(c5nc(C6COC6)n[nH]5)C4)C2)C3)cc1)C(F)(F)F` (stereo not shown) [compound 782], 17.8 nM; with `O=C(N1CC2(CC(Cc3nc(C(F)(F)F)cs3)C2)C1)N1CC2(CC(c3nc(C4COC4)n[nH]3)C2)C1` [compound 783], 33.7 nM. `O=C(N1CC2(CC(c3nc(C4CC4)n[nH]3)C2)C1)N1CC2(CN(Cc3cnc(C(F)(F)F)s3)C2)C1` [compound 784] had an IC50 of 5.18 nM.

Compound `Cn1nc(C(F)(F)F)cc1CC1CC2(C1)CN(C(=O)N1CC3(CC(c4nc(C5CC5)n[nH]4)C3)C1)C2` [compound 785] came in with an IC50 of 0.39 nM.

Compound `CS(=O)(=O)c1ccc(C23CC(C4CN(C(=O)N5CC6(CC(c7nc(C8CC8)n[nH]7)C6)C5)C4)(C2)C3)cc1` [compound 786] displayed a concentration for half-maximal inhibition (IC50) of 8.01 nM. The same measure for `O=C(N1CC2(CC(Cn3cnc(C4(C(F)(F)F)CC4)n3)C2)C1)N1CC2(CC(c3nc(C4CC4)n[nH]3)C2)C1` [compound 787]: 1.2 nM. The same measure for `O=C(N1CC2(CC(Cc3cnc(C(F)(F)F)cn3)C2)C1)N1CC2(CC(c3nc(C(F)(F)F)n[nH]3)C2)C1` [compound 788]: 22.5 nM. For the compound `O=C(N1CC2(CC(Cc3ncc(F)cc3Cl)C2)C1)N1CC2(CC(c3ncn[nH]3)C2)C1` [compound 789], the 50% inhibitory concentration (IC50) stood at 404 nM.

The compound `CS(=O)(=O)C1(c2ccc(C3CN(C(=O)N4CC5(CC(c6nc(C7(O)CC7)n[nH]6)C5)C4)C3)cc2)CC1` [compound 790] displayed an IC50 of 9.68 nM. Compound `CS(=O)(=O)c1ccc(CC2CC3(C2)CN(C(=O)N2CC4(CC(c5nc(C(F)(F)F)n[nH]5)C4)C2)C3)cc1` [compound 791] returned an IC50 of 17.6 nM.

On to `O=C(N1CC2(CC(Cc3nnc(C4(C(F)(F)F)CC4)o3)C2)C1)N1CC2(CC(c3nc(C4(F)CC4)n[nH]3)C2)C1` [compound 792], for which the midpoint of inhibition, the IC50, lay at 1.98 nM. As for `O=C(N1CC2(CC(Cc3cc(C(F)(F)F)n(CC(F)(F)F)n3)C2)C1)N1CC2(CC(c3nc(C4CC4)n[nH]3)C2)C1` [compound 793], the half-inhibitory concentration (IC50) was found to be 0.07 nM. The same measure for `O=C(N1CC2(CC(Cc3noc(C(F)(F)F)n3)C2)C1)N1CC2(CC(c3nc(C4CC4)n[nH]3)C2)C1` [compound 794]: 1.03 nM; for `O=C(N1CC2(CC(c3nc(C4CC4)n[nH]3)C2)C1)N1CC2(CN(Cc3nc[nH]c3C(F)(F)F)C2)C1` [compound 795]: 33.3 nM.

As to `O=C(N1CC2(CC(Cn3nccc3C(F)(F)F)C2)C1)N1CC2(CC(c3nc(C4(O)CC4)n[nH]3)C2)C1` [compound 796], the concentration for half-maximal inhibition (IC50) stood at 1.17 nM. With `N#Cc1ccc(CC2CC3(C2)CN(C(=O)N2CC4(CC(c5nc(C6COC6)n[nH]5)C4)C2)C3)c(F)c1` [compound 797] the figure was 9.31 nM; with `O=C(N1CC(C23CC(C(F)(F)c4ccc(C(F)(F)F)cc4)(C2)C3)C1)N1CC2(CC(c3nc(C4CC4)n[nH]3)C2)C1` [compound 798], 2.4 nM; with `O=C(N1CC2(CC(c3nc(C4CC4)n[nH]3)C2)C1)N1CC2(CN(Cc3cc[nH]n3)C2)C1` [compound 799], 1330 nM. The same measure for `CC(C)(C)Cc1nnc(C23CC(C4CN(C(=O)N5CC6(CC(c7nc(C8COC8)n[nH]7)C6)C5)C4)(C2)C3)s1` [compound 800]: 554 nM. The same measure for `N#Cc1cnn(CC2CC3(C2)CN(C(=O)N2CC4(CC(c5nc(C6CC6)n[nH]5)C4)C2)C3)c1` [compound 801]: 8.16 nM; for `CS(=O)(=O)c1cc(C(F)(F)F)ccc1C1CC2(C1)CN(C(=O)N1CC3(CC(c4nnc(C5CC5)[nH]4)C3)C1)C2` [compound 803]: 1.39 nM. In turn, `O=C(N1CC2(CC(c3nc(C4CC4)n[nH]3)C2)C1)N1CC2(CCN(Cc3ccc(C(F)(F)F)nc3)C2)C1` [compound 804] gave an IC50 of 7.16 nM. With `O=C(N1CC2(CC(c3ccc(C(F)(F)F)nc3)C2)C1)N1CC2(CC(c3nc(C4CC4)n[nH]3)C2)C1` [compound 805] the figure was 4.73 nM; with `O=C(N1CC(C23CC(S(=O)(=O)c4ccc(C(F)(F)F)cn4)(C2)C3)C1)N1CC2(CC(c3nc(C4CC4)n[nH]3)C2)C1` [compound 807], 478 nM. On to `N#Cc1cc(CC2CC3(C2)CN(C(=O)N2CC4(CC(c5nc(C6COC6)n[nH]5)C4)C2)C3)ccc1C(F)(F)F` [compound 808], for which it took 0.29 nM to reach half-maximal inhibition (IC50). As to `CS(=O)(=O)c1cc(CC2CC3(C2)CN(C(=O)N2CC4(CC(c5nc(C6CC6)n[nH]5)C4)C2)C3)cc(C(F)(F)F)c1` [compound 809], the IC50 turned out to be 0.34 nM.

With `Cn1cc(CC2CC3(C2)CN(C(=O)N2CC4(CC(c5nc(C6(O)CC6)n[nH]5)C4)C2)C3)c(C(F)(F)F)n1` [compound 810], the IC50 came to 1.14 nM. `O=C(N1CC2(CC(Cc3ccc(S(=O)(=O)C(F)(F)F)cn3)C2)C1)N1CC2(CC(c3nc(C4CC4)n[nH]3)C2)C1` [compound 813] yielded an IC50 of 0.18 nM.

On to `O=C(N1CC2(CCC(Cc3ccc(C(F)(F)F)cn3)CC2)C1)N1CC2(CC(c3nc(C4COC4)n[nH]3)C2)C1` [compound 814], for which the midpoint of inhibition, the IC50, lay at 60.3 nM.

(Values after patent US20250099448A1, “HETEROCYCLIC COMPOUNDS” (Hoffmann-La Roche Inc., priority 2022, published 2025).)
